The values that follow come from patent publication US4169150A, “Benzodiazepine derivatives and pharmaceutical compositions containing said derivatives” (Teijin Limited, priority 1975, dated 1979).

Data set [1] concerns mice. The data set is described as follows: Motor incoordinating activity (rotating rod). The class given is in vivo, mouse (ddY-type male mice). The note with it: Mus musculus, 0.05 h, PO, 5.5 rpm, within 3 minutes, read-out: ED50 motor incoordination, rotating rod. As for the experimental part: (§1) In the following tests, the pharmacological actions of the compounds were tested by using six mice (ddY-type male mice) for each dosage level, and ED50 values were determined. In the determination of ED50 values, the dosages of the test compounds were increased or decreased by a common ratio of 3 as required, and 3 or 4 dosage levels were used. The calculation of the ED50 values was made on the basis of the Litchfield-Wilcoxon method [J. Pharmacol. Exp. Therap., 96, 99 (1949)].
(6) Motor incoordinating activity
Mice which could stay for more than 3 minutes on a rotating rod having a diameter of 3.0 cm and rotating at a speed of 5.5 rpm. The subjects were orally administered with the test compound, and then at intervals of 30 minutes, they were placed on the rotating rod. Examination was made as to whether they slipped down within 3 minutes.

Data set [2] concerns mice. Kind of data set: Anti-electroshock convulsant activity (maximal electroshock). The settings on record: Mus musculus, PO, electroshock 30 mA, 200 Hz 1 hour later, read-out: ED50 anti-convulsion, maximal electroshock. It counts as in vivo, mouse (ddY-type male mice). As for the experimental part:
as §1
(3) Anti-electroshock convulsant activity
The subjects were orally administered with the test compound. One hour later, electroshock (30 mA, 200 Hz, 1 msec) was applied for 0.2 second through both ears, and the presence or absence of tonic extensor convulsion was examined.

Data set [3] deals with mice. The data set is described as follows: Anti-pentylene tetrazole convulsion activity. It counts as in vivo, mouse (ddY-type male mice). The note with it: Mus musculus, PO, pentylene tetrazole 125 mg/kg s.c. 1 hour later, read-out: ED50 anti-convulsion, pentetrazol shock. As for the experimental part:
as §1
(1) Anti-pentylene tetrazole convulsion activity
Each of test compounds suspended in a 5% gum arabic solution was orally administered to mice. One hour later, pentylene tetrazole in an amount of 125 mg/kg was administered subcutaneously. Then, over the course of 30 minutes, the presence or absence of convulsion in the subjects was examined.

In data set [4] the test system is mice. Kind of data set: Muscle relaxant activity (inclined screen). The class given is in vivo, mouse (ddY-type male mice). The settings on record: Mus musculus, PO, plate inclined at 70°, 30 seconds, read-out: ED50 muscle relaxation, inclined screen. As for the experimental part: as §1
(5) Muscle relaxant activity
Mice were placed on a wooden plate having a smooth surface and being inclined at an angle of 70°, and those which could stay on the initially placed positions for more than 30 seconds were selected. The selected subjects were orally administered with the test compound, and placed on the inclined plate. Examination was made as to whether the mice slipped down within 30 seconds.

The test system of data set [5] is mice. The data set is described as follows: Potentiation of thiopental hypnosis (sedation). The class given is in vivo, mouse (ddY-type male mice). The settings on record: Mus musculus, 1 h, PO, sodium thiopental 50 mg/kg i.p., sleeping time prolonged to two times. As for the experimental part: as §1
(4) Potentiation of thiopental hypnosis
The subjects were orally administered with the test compound. One hour later, sodium thiopental in an amount of 50 mg/kg was administered intraperitoneally. The dosage which prolonged the sleeping time (the period of loss of righting reflex) to two times that in the case of a group administered only with sodium thiopental was determined.

The test system of data set [6] is mice. Kind of data set: Taming activity (fighting mouse). It counts as in vivo, mouse (ddY-type male mice). The note with it: PO, electroshock 100 V, 3 mA. As for the experimental part:
as §1
This was determined by a partially modified version of the method of Tedeschi et al. [J. Pharmacol. Exp. Therap., 125, 28 (1959)]. Two mice different in body weight by less than 1 gram were placed in a fighting device, and electroshock (100 V, 3 mA, 0.45 Hz, 0.5 sec) was applied for 3 minutes. […] Then, at intervals of 30 minutes, electroshock was applied under the above conditions, and the presence or absence of fighting reaction in the subjects was examined.

The nature of data set [7]: Pharmacological / central nervous system depressant actions, general statement. The settings on record: anti-anxietic, sedative, hypnotic, muscle relaxant, anti-convulsant actions. It counts as in vivo.
In data set [8] the test system is mice. The data set is described as follows: Acute toxicity. It counts as in vivo, mouse (male ddY-type mice). The note with it: one week observation. As for the experimental part:
A test compound was suspended in a 5% solution of gum arabic, and the suspension was administered to a group of 2 to 4 male ddY-type mice in a dose of 1000, 2000, and 3000 mg/kg, respectively. The conditions of the subjects were observed over a period of one week after administration, and the acute toxicity was examined.

Some results are limits rather than exact numbers.

On to `Clc1ccc2c(c1)C(c1ccccc1Cl)=NCc1cccn1-2` [Comparison (R5=Cl, R6=Cl, R7=H), reference compound], for which the ED50 (as a rule, the dose that gives a 50% effect, or the effect in half of the subjects) in the data set on mice [1] is > 100 mg/kg; in the data set with mice [2] it was > 100 mg/kg; with mice [3], > 100 mg/kg; in the data set with mice [4], > 100 mg/kg; in the data set on mice [5] it was 18 mg/kg; with mice [6] it was > 100 mg/kg.
On to `Clc1ccc2c(c1)C(c1ccccc1)=NCc1cccn1-2` [Comparison (R5=Cl, R6=H, R7=H), 8-Chloro-6-phenyl-4H-pyrrolo[1,2-a][1,4]benzodiazepine, reference compound], for which the 50% effective dose (ED50) is > 100 mg/kg in the data set with mice [1]; > 100 mg/kg in the data set with mice [2]; 78 mg/kg with mice [3]; > 100 mg/kg in the data set with mice [4]; 44 mg/kg with mice [5]; > 100 mg/kg in the data set with mice [6]. For the same molecule, in data set [7], the “Pharmacological actions in words” value is recorded as “does not substantially show those pharmacological actions which are common to many other known benzodiazepines”.
Consider `c1ccc(C2=NCc3cccn3-c3ccccc32)cc1` [Comparison (R5=H, R6=H, R7=H), reference compound], for which the ED50 was > 100 mg/kg with mice [1]; > 100 mg/kg in the data set with mice [2]; > 100 mg/kg in the data set with mice [3]; > 100 mg/kg in the data set with mice [4]; 55 mg/kg with mice [5]; 78 mg/kg with mice [6].
`Cc1ccc2n1-c1ccc(Cl)cc1C(c1ccccc1Cl)=NC2` [Compound 1, 8-chloro-6-(2-chlorophenyl)-1-methyl-4H-pyrrolo[1,2-a][1,4]benzodiazepine]: the ED50 with mice [1] was 100 mg/kg; in the data set with mice [2], > 100 mg/kg; in the data set on mice [3], 20 mg/kg; in the data set with mice [4] it was > 100 mg/kg; in the data set on mice [5], 2.8 mg/kg; in the data set with mice [6], 11 mg/kg.
On to `Cc1ccc2n1-c1ccc(Cl)cc1C(c1ccccc1F)=NC2` [Compound 2, 8-chloro-6-(2-fluorophenyl)-1-methyl-4H-pyrrolo[1,2-a][1,4]benzodiazepine], for which the ED50 with mice [1] is > 100 mg/kg; with mice [2], > 100 mg/kg; with mice [3], 36 mg/kg; with mice [4], > 100 mg/kg; with mice [5], 6.9 mg/kg; in the data set with mice [6] it was 55 mg/kg.
For the molecule `Cc1cc2n(c1C)-c1ccc(Cl)cc1C(c1ccccc1F)=NC2` [Compound 3, 8-chloro-1,2-dimethyl-6-(2-fluorophenyl)-4H-pyrrolo[1,2-a][1,4]benzodiazepine], the ED50 in the data set with mice [1] was > 100 mg/kg; in the data set with mice [2], > 100 mg/kg; with mice [3], 10 mg/kg; in the data set on mice [4], > 100 mg/kg; in the data set on mice [5], 10 mg/kg; in the data set on mice [6], 17 mg/kg.
On to `Cc1cc2n(c1C)-c1ccc(Cl)cc1C(c1ccccc1Cl)=NC2` [Compound 4, 8-chloro-6-(2-chlorophenyl)-1,2-dimethyl-4H-pyrrolo[1,2-a][1,4]benzodiazepine], for which the ED50 with mice [1] was 40 mg/kg; in the data set on mice [2], > 100 mg/kg; in the data set on mice [3], 6.5 mg/kg; with mice [4], > 100 mg/kg; in the data set with mice [5], 2.6 mg/kg; in the data set with mice [6], 4.8 mg/kg.
On to `Cc1cc2n(c1C)-c1ccc(Cl)cc1C(c1ccccc1)=NC2` [Compound 5, 8-chloro-1,2-dimethyl-6-phenyl-4H-pyrrolo[1,2-a][1,4]benzodiazepine], for which the ED50 with mice [1] is > 100 mg/kg; with mice [2] it was > 100 mg/kg; with mice [3], 13.5 mg/kg; with mice [4] it was > 100 mg/kg; with mice [5] it was 21 mg/kg; in the data set with mice [6] it was ≥ 30 mg/kg.
With `CCc1cc2n(c1C)-c1ccc(Cl)cc1C(c1ccccc1Cl)=NC2` [Compound 6, 8-chloro-6-(2-chlorophenyl)-2-ethyl-1-methyl-4H-pyrrolo[1,2-a][1,4]benzodiazepine], the ED50 with mice [1] was 23.5 mg/kg; in the data set with mice [2], > 30 mg/kg; in the data set on mice [3], 3.4 mg/kg; with mice [4], 14 mg/kg; with mice [5], 0.8 mg/kg; in the data set on mice [6] it was 5.5 mg/kg.
As for `CCc1cc2n(c1C)-c1ccc(Cl)cc1C(c1ccccc1F)=NC2` [Compound 7, 8-chloro-2-ethyl-6-(2-fluorophenyl)-1-methyl-4H-pyrrolo[1,2-a][1,4]benzodiazepine], the ED50 with mice [1] was > 100 mg/kg; with mice [2] it was > 30 mg/kg; in the data set on mice [3], 5.5 mg/kg; with mice [4], 30 mg/kg; in the data set on mice [5], 2.2 mg/kg; with mice [6], 5.5 mg/kg.
As to `CCc1cc2n(c1C)-c1ccc(Cl)cc1C(c1c(F)cccc1F)=NC2` [Compound 8, 8-chloro-2-ethyl-6-(2,6-difluorophenyl)-1-methyl-4H-pyrrolo[1,2-a][1,4]benzodiazepine], the 50% effective dose (ED50) was > 100 mg/kg in the data set with mice [1]; > 30 mg/kg with mice [2]; 11.2 mg/kg with mice [3]; 69 mg/kg in the data set with mice [4]; 1.9 mg/kg in the data set on mice [5]; 12.5 mg/kg in the data set on mice [6].
On to `Cc1cc(C)n2c1CN=C(c1ccccc1Cl)c1cc(Cl)ccc1-2` [Compound 9, 8-chloro-6-(2-chlorophenyl)-1,3-dimethyl-4H-pyrrolo[1,2-a][1,4]benzodiazepine], for which the median effective dose (ED50) was determined as 15.5 mg/kg in the data set with mice [1]; 100 mg/kg with mice [2]; 1.8 mg/kg with mice [3]; 8.2 mg/kg with mice [4]; 0.34 mg/kg with mice [5]; 1.6 mg/kg in the data set with mice [6]. The “Acute toxicity: death of the subjects” value in the data set on mice [8] (3000 mg/kg) is “did not cause any death”.
Regarding `Cc1cc(C)n2c1CN=C(c1ccccc1F)c1cc(Cl)ccc1-2` [Compound 10, 8-chloro-1,3-dimethyl-6-(2-fluorophenyl)-4H-pyrrolo[1,2-a][1,4]benzodiazepine], the ED50 was > 30 mg/kg in the data set on mice [1]; > 100 mg/kg with mice [2]; 5.5 mg/kg in the data set with mice [3]; 21.5 mg/kg with mice [4]; 2.4 mg/kg in the data set with mice [5]; 8.8 mg/kg with mice [6].
Regarding `Cc1cc(C)n2c1CN=C(c1c(F)cccc1F)c1cc(Cl)ccc1-2` [Compound 11, 8-chloro-6-(2,6-difluorophenyl)-1,3-dimethyl-4H-pyrrolo[1,2-a][1,4]benzodiazepine], the median effective dose (ED50) amounted to 15.5 mg/kg in the data set on mice [1]; 88 mg/kg in the data set on mice [2]; 2 mg/kg in the data set with mice [3]; 10 mg/kg with mice [4]; 0.7 mg/kg in the data set with mice [5]; 1.6 mg/kg with mice [6]. Besides, the “Acute toxicity: death of the subjects” value with mice [8] (3000 mg/kg) is “did not cause any death”.
Take `CN1C(=O)CN=C(c2ccccc2)c2cc(Cl)ccc21` [Diazepam, reference compound]: the ED50 in the data set with mice [2] amounted to 8.8 mg/kg; with mice [3] it was 0.7 mg/kg; with mice [4], 1 mg/kg; in the data set with mice [5] it was 0.3 mg/kg; in the data set with mice [6] it was 1.6 mg/kg. The “Acute toxicity: death of the subjects” value in the data set with mice [8] (1000 mg/kg) is “caused half of the mice to die”.
